Here are results for 24 compounds from patent publication US20250171451A1, “NOVEL HETEROCYCLIC COMPOUND AND PHARMACEUTICAL COMPOSITION COMPRISING SAME” (Samjin Pharmaceutical Co., Ltd., priority 2022, published 2025).

In assay [1] the test system is TEAD response element (TRE) luciferase reporter in MCF-7 cell lines. The assay can be described thus: TEAD response element (TRE) reporter assay. The class given is cell-based. Conditions: Homo sapiens, MCF7; 0.2 μM compound, 24 hours, MCF-7 TEAD reporter cells, relative to vehicle (1% DMSO). As to the method: MCF-7 cell lines injected with TEAD reporter genes expressing firefly luciferase upon activation of TEAD response element (TRE) were obtained from BPS bioscience (#60618). The TEAD reporter genes were injected to stable expression in the MCF-7 cell lines.
TEAD reporter genes expressing firefly luciferase upon activation of TEAD response element (TRE) were injected with TEAD reporter genes to ensure stable expression of the TEAD reporter genes. Here, the TEAD reporter genes expresses firefly luciferase upon activation of TEAD response element (TRE). The cells were cultured in a cell-only culture medium (BPS bioscience) to which 10 μg/mL insulin (Sigma) was added at 37° C. and 5% CO2.
In 24 hours after dispensing said cells into a 96-well plate, each of the compounds of the examples or a vehicle solvent (final 1% DMSO) was treated by being diluted with a serum-free culture medium so that the final concentration became 0.2 μM. In 24 hours after said treatment, a luciferase assay working solution (ONE-Step Luciferase assay reagent; BPS bioscience) containing a luciferase substrate was treated in each well at 100 μL, and then left in a shaker for 15 minutes to be well mixed. Then, a degree of luminescence generated by luciferase expressed according to TEAD activation was measured by a microplate reader (TECAN). A relative activity of luciferase […], and the results are shown in table 8 below.

Assay [2] addresses T1, recombinant GST-TEAD1 proteins (209 to 426 a.a.) (Homo sapiens, UniProt P28347).
T1 construct: recombinant GST-TEAD1 proteins (209 to 426 a.a.)
Put plainly: Evaluation of palmitoylation of TEAD protein. The format is biochemical. Conditions: 5 μM compound, 15 minutes preincubation, 3 μM alkyne palmitoyl-CoA 30 minutes, pH 6.4, vs DMSO control. As to the method:
Each compound corresponding to a concentration of 5 μM was added to recombinant GST-TEAD1 proteins (209 to 426 a.a.) and cultured for 15 minutes. For an autopalmitoylation reaction of proteins after culturing, 3 μM alkyne palmitoyl-CoA (Cayman chemical) and 50 mM MES buffer (pH 6.4) were added and cultured for 30 minutes, after which 1% of sodium dodecyl sulfate (SDS) was added to stop the reaction. After that, biotinylation was performed through a CLICK (Click chemistry tools) reaction, and then a protein solution was concentrated to prepare a sample.
Analysis of the sample was performed using SDS-PAGE and streptavidin HRP (Thermo scientific). The resulting values were quantified using an Image J (NIH). For the intensity of the band obtained from Streptavidin blot, a palmitoylation inhibitory activity was analyzed based on the control group (DMSO). The normalization of each sample was performed using an anti-GST (91G1) (cell signaling) antibody.

T1 sequence (P28347 209-426): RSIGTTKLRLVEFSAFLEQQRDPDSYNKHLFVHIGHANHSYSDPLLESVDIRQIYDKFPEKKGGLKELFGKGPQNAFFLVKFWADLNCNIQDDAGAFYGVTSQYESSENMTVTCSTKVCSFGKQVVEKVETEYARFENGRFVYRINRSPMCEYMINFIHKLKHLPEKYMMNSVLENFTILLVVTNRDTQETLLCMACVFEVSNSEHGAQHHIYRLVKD

The compound `C=CC(=O)Nc1cnc2c(c1)c(C)nn2C1=CCC(C(F)(F)F)CC1` (stereo not drawn) [Compound 68, N-(3-methyl-1-(4-(trifluoromethyl)cyclohex-1-en-1-yl)-1H-pyrazolo[3,4-b]pyridin-5-yl)acrylamide] registered an inhibition at 0.2 µM in assay [1] of more than 50%. In addition, the inhibition at 5 µM in assay [2] was in the range of 40 to 80%.
As to `C=CC(=O)Nc1cnc2c(c1)c(C)nn2-c1ccc(C(F)F)cc1` [Compound 69, N-(1-(4-(difluoromethyl)phenyl)-3-methyl-1H-pyrazolo[3,4-b]pyridin-5-yl)acrylamide], in assay [1], the inhibition at 0.2 µM lay within 30 to 50%. Also, the inhibition at 5 µM in assay [2] lay in the range of 40 to 80%.
For `C=CC(=O)Nc1cnc2c(c1)c(C)nn2-c1ccc(F)cc1` [Compound 70, N-(1-(4-fluorophenyl)-3-methyl-1H-pyrazolo[3,4-b]pyridin-5-yl)acrylamide], the inhibition at 0.2 µM in assay [1] fell in the range of 30 to 50%. Also, in assay [2], the inhibition at 5 µM was less than 40%.
Taken in the same sequence, the figures for `C=CC(=O)Nc1cnc2c(c1)c(C)cn2Cc1ccc(C(F)F)cc1` [Compound 71, N-(1-(4-(difluoromethyl)benzyl)-3-methyl-1H-pyrrolo[2,3-b]pyridin-5-yl)acrylamide] were 30 to 50% and less than 40%.
For `C=CC(=O)Nc1cnc2c(c1)c(C)nn2-c1ccc(C(F)(F)F)c(Cl)c1` [Compound 72, N-(1-(3-chloro-4-(trifluoromethyl)phenyl)-3-methyl-1H-pyrazolo[3,4-b]pyridin-5-yl)acrylamide], in that order: 30 to 50% and 40 to 80%.
On to `C=CC(=O)Nc1cnc2c(c1)c(C)nn2-c1cccc(OC)c1` [Compound 73, N-(1-(3-methoxyphenyl)-3-methyl-1H-pyrazolo[3,4-b]pyridin-5-yl)acrylamide], for which the inhibition at 0.2 µM in assay [1] is less than 30%. Moreover, the inhibition at 5 µM in assay [2] was less than 40%.
Taken in the same sequence, the figures for `C=CC(=O)Nc1cnc2c(c1)c(C)nn2-c1ccc(C(F)(F)F)c(C)c1` [Compound 74, N-(3-methyl-1-(3-methyl-4-(trifluoromethyl)phenyl)-1H-pyrazolo[3,4-b]pyridin-5-yl)acrylamide] were more than 50% and 40 to 80%.
For `C=CC(=O)Nc1cnc2c(c1)c(C)nn2-c1ccccc1C` [Compound 75, N-(3-methyl-1-(o-tolyl)-1H-pyrazolo[3,4-b]pyridin-5-yl)acrylamide], in that order: less than 30% and 40 to 80%.
Taken in the same sequence, the figures for `C=CC(=O)Nc1cnc2c(c1)c(C)nn2-c1cc(F)cc(F)c1` [Compound 76, N-(1-(3,5-difluorophenyl)-3-methyl-1H-pyrazolo[3,4-b]pyridin-5-yl)acrylamide] were 30 to 50% and 40 to 80%.
Turning to `C=CC(=O)Nc1cnc2c(c1)c(C)nn2-c1ccc(OCC(C)C)cc1` [Compound 78, N-(1-(4-isobutoxyphenyl)-3-methyl-1H-pyrazolo[3,4-b]pyridin-5-yl)acrylamide], the inhibition at 0.2 µM in assay [1] is less than 30%. The inhibition at 5 µM in assay [2] was 40 to 80%.
For `C=CC(=O)Nc1cnc2c(c1)c(C)nn2-c1ccc(C(C)(C)C)cc1` [Compound 79, N-(1-(4-(tert-butyl)phenyl)-3-methyl-1H-pyrazolo[3,4-b]pyridin-5-yl)acrylamide], in that order: 30 to 50% and 40 to 80%.
Taken in the same sequence, the figures for `C=CC(=O)Nc1cnc2c(c1)c(C)nn2-c1ccc(C(C)CC)cc1` (stereo not drawn) [Compound 80, N-(1-(4-(sec-butyl)phenyl)-3-methyl-1H-pyrazolo[3,4-b]pyridin-5-yl)acrylamide] were 30 to 50% and 40 to 80%.
Taken in the same sequence, the figures for `C=CC(=O)Nc1cnc2c(c1)c(C)nn2-c1ccccc1OC` [Compound 81, N-(1-(2-methoxyphenyl)-3-methyl-1H-pyrazolo[3,4-b]pyridin-5-yl)acrylamide] were less than 30% and less than 40%.
For the compound `C=CC(=O)Nc1cnc2c(c1)c(C)nn2-c1ccccc1C(F)(F)F` [Compound 82, N-(3-methyl-1-(2-(trifluoromethyl)phenyl)-1H-pyrazolo[3,4-b]pyridin-5-yl)acrylamide], the inhibition at 0.2 µM in assay [1] is less than 30%. Moreover, the inhibition at 5 µM in assay [2] is less than 40%.
For `C=CC(=O)Nc1cnc2c(c1)c(C)nn2-c1ccccc1Br` [Compound 83, N-(1-(2-bromophenyl)-3-methyl-1H-pyrazolo[3,4-b]pyridin-5-yl)acrylamide], the inhibition at 0.2 µM in assay [1] was less than 30%. Also, the inhibition at 5 µM in assay [2] was less than 40%.
On to `C=CC(=O)Nc1cnc2c(c1)c(C)nn2-c1cc(OC)cc(OC)c1` [Compound 84, N-(1-(3,5-dimethoxyphenyl)-3-methyl-1H-pyrazolo[3,4-b]pyridin-5-yl)acrylamide], for which the inhibition at 0.2 µM in assay [1] is less than 30%. Further, the inhibition at 5 µM in assay [2] was less than 40%.
Taken in the same sequence, the figures for `C=CS(=O)(=O)Nc1cnc2c(c1)c(C)nn2-c1ccc(C(F)(F)F)cc1` [Compound 85, N-(3-methyl-1-(4-(trifluoromethyl)phenyl)-1H-pyrazolo[3,4-b]pyridin-5-yl)ethenesulfonamide] were more than 50% and more than 80%.
Taken in the same sequence, the figures for `C=CC(=O)Nc1cnc2c(c1)c(C)nn2-c1ccc(C(F)(F)F)c(O)c1` [Compound 87, N-(1-(3-hydroxy-4-(trifluoromethyl)phenyl)-3-methyl-1H-pyrazolo[3,4-b]pyridin-5-yl)acrylamide] were less than 30% and 40 to 80%.
For `CC=CC(=O)Nc1cnc2c(c1)c(C)nn2-c1ccc(C(F)(F)F)cc1` [Compound 88, N-(3-methyl-1-(4-(trifluoromethyl)phenyl)-1H-pyrazolo[3,4-b]pyridin-5-yl)but-2-enamide], in that order: 30 to 50% and 40 to 80%.
For `C=CC(=O)Nc1cnc2c(c1)c(C)nn2-c1ccc(C(F)(F)F)s1` [Compound 89, N-(3-methyl-1-(5-(trifluoromethyl)thiophen-2-yl)-1H-pyrazolo[3,4-b]pyridin-5-yl)acrylamide], the inhibition at 0.2 µM in assay [1] was more than 50%. In assay [2], the inhibition at 5 µM lay within 40 to 80%.
Taken in the same sequence, the figures for `C=CC(=O)N(C)c1cnc2c(c1)c(C)nn2-c1ccc(Cl)cc1` [Compound 91, N-(1-(4-chlorophenyl)-3-methyl-1H-pyrazolo[3,4-b]pyridin-5-yl)-N-methylacrylamide] were more than 50% and more than 80%.
In turn, `C=CC(=O)Nc1cnc2c(c1)c(C)nn2-c1ccc(F)nc1` [Compound 93, N-(1-(6-fluoropyridin-3-yl)-3-methyl-1H-pyrazolo[3,4-b]pyridin-5-yl)acrylamide] displayed an inhibition at 0.2 µM in assay [1] of 30 to 50%. For the same compound, the inhibition at 5 µM in assay [2] lay in the range of 40 to 80%.
For the compound `C=CC(=O)Nc1cnc2c(c1)c(C)nn2-c1cccnc1` [Compound 94, N-(3-methyl-1-(pyridin-3-yl)-1H-pyrazolo[3,4-b]pyridin-5-yl)acrylamide], the inhibition at 0.2 µM in assay [1] was less than 30%. In addition, the inhibition at 5 µM in assay [2] was less than 40%.
For the compound `C=CC(=O)Nc1cnc2c(c1)c(C)nn2-c1ccc(Cl)c(Cl)c1` [Compound 96, N-(1-(3,4-dichlorophenyl)-3-methyl-1H-pyrazolo[3,4-b]pyridin-5-yl)acrylamide], in assay [1], the inhibition at 0.2 µM was more than 50%. Moreover, the inhibition at 5 µM in assay [2] was 40 to 80%.

The term inhibition denotes the relative decrease from the control value, in per cent.
